Publication PMC8330742, “New benzothieno[2,3-c]pyridines as non-steroidal CYP17 inhibitors: design, synthesis, anticancer screening, apoptosis induction, and in silico ADME profile studies” (Journal of Enzyme Inhibition and Medicinal Chemistry, 2021)
Like-named read-outs stand apart in the source and are kept apart here.

Columns and labels:
RPMI-8226 = test: NCI-60 SRB screen; type: cell-based; settings: Homo sapiens, single dose 10^−5 M, read-out: Growth inhibition (%)
U251 = test: NCI-60 SRB screen; type: cell-based, human; settings: Homo sapiens, U-251, single dose 10^−5 M, read-out: Growth inhibition (%)
OVCAR-5 = test: NCI-60 SRB screen; type: cell-based, human; settings: Homo sapiens, single dose 10^−5 M, read-out: Growth inhibition (%)
SF-539 = test: NCI-60 SRB screen; type: cell-based, human; settings: Homo sapiens, single dose 10^−5 M, read-out: Growth inhibition (%)
SNB-19 = test: NCI-60 SRB screen; type: cell-based; settings: Homo sapiens, single dose 10^−5 M, read-out: Growth inhibition (%)
RXF 393 = test: NCI-60 SRB screen; type: cell-based, human; settings: Homo sapiens, single dose 10^−5 M, read-out: Growth inhibition (%)
SNB-75 = test: NCI-60 SRB screen; type: cell-based, human; settings: Homo sapiens, single dose 10^−5 M, read-out: Growth inhibition (%)
A498 = test: NCI-60 SRB screen; type: cell-based, human; settings: Homo sapiens, single dose 10^−5 M, read-out: Growth inhibition (%)
DU-145 = test: NCI-60 SRB screen; type: cell-based, human; settings: Homo sapiens; single dose 10^−5 M; DU-145, Prostate cancer; read-out: Growth inhibition (%)
MCF7 = test: NCI-60 SRB screen; type: cell-based, human; settings: Homo sapiens, single dose 10^−5 M, MCF-7, Breast cancer, read-out: Growth inhibition (%)
MDA-MB-231/ATCC = test: NCI-60 SRB screen; type: cell-based, human; settings: Homo sapiens; single dose 10^−5 M; MDA-MB 231/ATCC, Breast cancer; read-out: Growth inhibition (%)
MDA-MB-468 = test: NCI-60 SRB screen; type: cell-based, human; settings: Homo sapiens; single dose 10^−5 M; MDA-MB-468, Breast cancer; read-out: Growth inhibition (%)
BT-549 = test: NCI-60 SRB screen; type: cell-based, human; settings: Homo sapiens; single dose 10^−5 M; BT-549, Breast cancer; read-out: Growth inhibition (%)
T-47D = test: NCI-60 SRB screen; type: cell-based, human; settings: Homo sapiens, T47D, single dose 10^−5 M, Breast cancer, read-out: Growth inhibition (%)
PC-3 = test: NCI-60 SRB screen; type: cell-based, human; settings: Homo sapiens; single dose 10^−5 M; PC-3, Prostate cancer; read-out: Growth inhibition (%)

COc1ccc(C2NC(=O)C(Cl)c3c2sc2c(F)cccc32)c(OC)c1 (stereo not shown) [Compound 4a, 4-Chloro-1-(2,4-Dimethoxyphenyl)-8-fluoro-1,2-dihydro[1]benzothieno [2,3-c]pyridine-3(4H)-one]
inhibition at 10 µM (RPMI-8226; RPMI-8226): 11.7% | inhibition at 10 µM (U251; U251): 0.4% | inhibition at 10 µM (OVCAR-5; OVCAR-5): -3.64% | inhibition at 10 µM (SF-539; SF-539): 3.36% | melting point: 120 to 122 °C | inhibition at 10 µM (SNB-19; SNB-19): 0.33% | inhibition at 10 µM (RXF 393; RXF 393): -0.71% | inhibition at 10 µM (SNB-75; SNB-75): 22.3% | inhibition at 10 µM (A498; A498): 14.9%

COc1ccc(C2NC(=O)C(Cl)c3c2sc2c(F)cccc32)cc1 (stereo not shown) [Compound 4b, 4-Chloro-8-fluoro-1-(4-methoxyphenyl)-1,2-dihydro[1]benzothieno[2,3-c] pyridine-3(4H)-one]
inhibition at 10 µM (RPMI-8226; RPMI-8226): 7.32% | inhibition at 10 µM (U251; U251): 21.1% | inhibition at 10 µM (OVCAR-5; OVCAR-5): -12.9% | inhibition at 10 µM (SF-539; SF-539): 15.8% | melting point: 154 to 156 °C | inhibition at 10 µM (SNB-19; SNB-19): 7.47% | inhibition at 10 µM (RXF 393; RXF 393): 9.68% | inhibition at 10 µM (SNB-75; SNB-75): 22.8% | inhibition at 10 µM (A498; A498): 11.1%

O=C1NC(c2ccccc2[N+](=O)[O-])c2sc3c(F)cccc3c2C1Cl (stereo not shown) [Compound 4c, 4-Chloro-8-fluoro-1-(2-nitrophenyl)-1,2-dihydro[1]benzothieno[2,3-c] pyridine-3(4H)-one]
inhibition at 10 µM (RPMI-8226; RPMI-8226): 5.9% | inhibition at 10 µM (U251; U251): 8.82% | inhibition at 10 µM (OVCAR-5; OVCAR-5): -2.88% | inhibition at 10 µM (SF-539; SF-539): 3.36% | melting point: 110 to 112 °C | inhibition at 10 µM (SNB-19; SNB-19): -2.16% | inhibition at 10 µM (RXF 393; RXF 393): -17.3% | inhibition at 10 µM (SNB-75; SNB-75): 11.7% | inhibition at 10 µM (A498; A498): -6.23%

N#CC1=C(Cl)NC(c2cccc([N+](=O)[O-])c2)c2sc3c(F)cccc3c21 (stereo not shown) [Compound 7b, 3-Chloro-4-cyano-8-fluoro-1-(3-nitrophenyl)-1,2-dihydro[1]benzothieno [2,3-c]pyridine]
inhibition at 10 µM (DU-145): -14.2% | inhibition at 10 µM (RPMI-8226; RPMI-8226, Leukaemia): 12.7% | inhibition at 10 µM (U251; U251, CNS cancer): -7.36% | inhibition at 10 µM (OVCAR-5; OVCAR-5, Ovarian cancer): -3.54% | inhibition at 10 µM (SF-539; SF-539, CNS cancer): 3.78% | melting point: 140 to 142 °C | inhibition at 10 µM (MCF7): 8.22% | inhibition at 10 µM (MDA-MB-231/ATCC): 7.25% | inhibition at 10 µM (SNB-19; SNB-19, CNS cancer): -0.67% | inhibition at 10 µM (RXF 393; RXF 393, Renal cancer): -15.8% | inhibition at 10 µM (MDA-MB-468): -7.25% | inhibition at 10 µM (SNB-75; SNB-75, CNS cancer): 8.28% | inhibition at 10 µM (A498; A498, Renal cancer): 19.7% | inhibition at 10 µM (BT-549): -2.93% | inhibition at 10 µM (T-47D): -9.14% | inhibition at 10 µM (PC-3): 3.5%

O=[N+]([O-])c1cccc(C2NC(N3CCOCC3)=C(Cl)c3c2sc2c(F)cccc32)c1 (stereo not shown) [Compound 8b, 4-Chloro-3-(4-morpholino)-8-fluoro-1-(3-nitrophenyl)-1,2-dihydro [1]benzothieno[2,3-c]pyridine]
inhibition at 10 µM (DU-145): -1.71% | inhibition at 10 µM (RPMI-8226; RPMI-8226, Leukaemia): 16.2% | inhibition at 10 µM (U251; U251, CNS cancer): 6.85% | inhibition at 10 µM (OVCAR-5; OVCAR-5, Ovarian cancer): 8.49% | inhibition at 10 µM (SF-539; SF-539, CNS cancer): 6.36% | melting point: 175 to 177 °C | inhibition at 10 µM (MCF7): 21% | inhibition at 10 µM (MDA-MB-231/ATCC): 18.8% | inhibition at 10 µM (SNB-19; SNB-19, CNS cancer): 1.4% | inhibition at 10 µM (RXF 393; RXF 393, Renal cancer): 11.9% | inhibition at 10 µM (MDA-MB-468): 1.73% | inhibition at 10 µM (SNB-75; SNB-75, CNS cancer): 10.4% | inhibition at 10 µM (A498; A498, Renal cancer): 10.4% | inhibition at 10 µM (BT-549): 4.09% | inhibition at 10 µM (T-47D): 20.8% | inhibition at 10 µM (PC-3): 14.5%

O=[N+]([O-])c1cccc(C2NC(N3CCCCC3)=C(Cl)c3c2sc2c(F)cccc32)c1 (stereo not shown) [Compound 8c, 4-Chloro-3-(piperidin-1-yl)-8-fluoro-1-(3-nitrophenyl)-1,2-dihydro [1]benzothieno[2,3-c]pyridine]
inhibition at 10 µM (DU-145): -12.5% | inhibition at 10 µM (RPMI-8226; RPMI-8226, Leukaemia): 8.74% | inhibition at 10 µM (U251; U251, CNS cancer): -7.81% | inhibition at 10 µM (OVCAR-5; OVCAR-5, Ovarian cancer): -1.61% | inhibition at 10 µM (SF-539; SF-539, CNS cancer): -6.63% | melting point: 241 to 243 °C | inhibition at 10 µM (MCF7): 23.3% | inhibition at 10 µM (MDA-MB-231/ATCC): 13.9% | inhibition at 10 µM (SNB-19; SNB-19, CNS cancer): -3.36% | inhibition at 10 µM (RXF 393; RXF 393, Renal cancer): -15.6% | inhibition at 10 µM (MDA-MB-468): -13.9% | inhibition at 10 µM (SNB-75; SNB-75, CNS cancer): 22.4% | inhibition at 10 µM (BT-549): -10.5% | inhibition at 10 µM (T-47D): 17.5% | inhibition at 10 µM (PC-3): 11.9%

N#CC1=C(N2CCCCC2)NC(c2cccc([N+](=O)[O-])c2)c2sc3c(F)cccc3c21 (stereo not shown) [Compound 8f, 4-Cyano-3-(piperidin-1-yl)-8-fluoro-1-(3-nitrophenyl)-1,2-dihydro [1]benzothieno[2,3-c]pyridine]
inhibition at 10 µM (DU-145): -8.32% | inhibition at 10 µM (RPMI-8226; RPMI-8226, Leukaemia): 14.9% | inhibition at 10 µM (U251; U251, CNS cancer): -6.11% | inhibition at 10 µM (OVCAR-5; OVCAR-5, Ovarian cancer): 5.19% | inhibition at 10 µM (SF-539; SF-539, CNS cancer): 6.49% | melting point: 280 to 282 °C | inhibition at 10 µM (MCF7): -0.95% | inhibition at 10 µM (MDA-MB-231/ATCC): 15.1% | inhibition at 10 µM (SNB-19; SNB-19, CNS cancer): 1.38% | inhibition at 10 µM (RXF 393; RXF 393, Renal cancer): -6.31% | inhibition at 10 µM (MDA-MB-468): -8.03% | inhibition at 10 µM (SNB-75; SNB-75, CNS cancer): 5.45% | inhibition at 10 µM (A498; A498, Renal cancer): -0.87% | inhibition at 10 µM (BT-549): 1.03% | inhibition at 10 µM (T-47D): 2.45% | inhibition at 10 µM (PC-3): 8.87%

O=[N+]([O-])c1cccc(C2NC3=C(Nc4ccccc4N3)c3c2sc2c(F)cccc32)c1 (stereo not shown) [Compound 9, 9-Fluoro-7-(3-nitrophenyl)-5,6,7,13-tetrahydro[1]benzothieno[3′,2′:4,5]-pyrido[2,3-b]quinoxaline]
inhibition at 10 µM (DU-145): -11.4% | inhibition at 10 µM (RPMI-8226; RPMI-8226, Leukaemia): 12.1% | inhibition at 10 µM (U251; U251, CNS cancer): -3.59% | inhibition at 10 µM (OVCAR-5; OVCAR-5, Ovarian cancer): 3.15% | inhibition at 10 µM (SF-539; SF-539, CNS cancer): 3.93% | melting point: 160 to 162 °C | inhibition at 10 µM (MCF7): 1.91% | inhibition at 10 µM (MDA-MB-231/ATCC): 17.8% | inhibition at 10 µM (SNB-19; SNB-19, CNS cancer): -0.03% | inhibition at 10 µM (RXF 393; RXF 393, Renal cancer): -15.3% | inhibition at 10 µM (MDA-MB-468): -10.6% | inhibition at 10 µM (SNB-75; SNB-75, CNS cancer): 10.2% | inhibition at 10 µM (A498; A498, Renal cancer): -0.12% | inhibition at 10 µM (BT-549): 5.02% | inhibition at 10 µM (T-47D): -5.91% | inhibition at 10 µM (PC-3): 7.47%
